In this experiment the target is WDR5 (Homo sapiens, UniProt P61964). The experiment is described as follows: Competition-based fluorescence polarization anisotropy assay. Conditions: binding to WDR5; displacement of FITC-labeled small molecule probe (analogous to Example J2 or HCH-25) or peptide probe FITC-AHx-SEEEIDVVSV; pH 6.0; Ki converted from IC50. Put shortly: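 Competition fluorescence polarization anisotropy binding to WDR5 using a FITC-labeled peptide probe or a fluorescently labeled small-molecule probe. Buffer: 200 mM phosphate, 300 mM NaCl, 0.5 mM TCEP, 0.1% Chaps, pH 6.0. Displacement data were converted to Ki.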

Each structure is given as a SMILES string.

For orientation: Ki means the equilibrium dissociation constant of an inhibitor or competing ligand from its target. In turn, `O=C(NCCN1CCOCC1)c1cc(OC(F)(F)F)cc(NS(=O)(=O)c2cc(Br)ccc2O)c1O` [Example J164, 3-((5-Bromo-2-hydroxyphenyl)sulfonamido)-2-hydroxy-N-(2-morpholinoethyl)-(trifluoromethoxy)benzamide] had a Ki of 1440 nM. In other words, the single-digit micromolar range.
For the compound `COCCNC(=O)c1cc(C2CC2)cc(NS(=O)(=O)c2cc(Br)cc(Cl)c2O)c1F` [Example J157, 3-((5-Bromo-3-chloro-2-hydroxyphenyl)sulfonamido)-5-cyclopropyl-2-fluoro-N-(2-methoxyethyl)benzamide], the affinity corresponds to a Ki of 210 nM.
Take `O=C(O)c1cc(Cl)cc(NS(=O)(=O)c2cc(Br)c(F)cc2O)c1O` [Example J9, 3-((5-Bromo-4-fluoro-2-hydroxyphenyl)sulfonamido)-5-chloro-2-hydroxybenzoic acid]: the Ki was found to be 2670 nM.
Under `CS(=O)(=O)c1cc(Cl)cc(NS(=O)(=O)c2cc(Br)cc(Cl)c2O)c1O` [Example S16-2, 5-Bromo-3-chloro-N-(5-chloro-2-hydroxy-3-(methylsulfonyl)phenyl)-2-hydroxybenzenesulfonamide] stands 20 nM; under `COc1ccc(Br)cc1S(=O)(=O)Nc1cc(Cl)cc(C(=O)N2CCC[C@@H]2CO)c1O` [Example J55, (R)-5-Bromo-N-(5-chloro-2-hydroxy-3-(2-(hydroxymethyl)pyrrolidine-1-carbonyl)phenyl)-2-methoxybenzenesulfonamide], 8170 nM; under `N#CC1(c2cc(NS(=O)(=O)c3cc(Br)ccc3O)c(O)c(C(=O)Nc3nc[nH]n3)c2)CCC1` [Example J227, 3-((5-Bromo-2-hydroxyphenyl)sulfonamido)-5-(1-cyanocyclobutyl)-2-hydroxy-N-(1H-1,2,4-triazol-3-yl)benzamide], 50 nM.
Under `NC(=O)c1cc(F)cc(NS(=O)(=O)c2cc(Br)ccc2O)c1O` [Example J108, 3-((5-Bromo-2-hydroxyphenyl)sulfonamido)-5-fluoro-2-hydroxybenzamide] stands 2240 nM; under `N#CC1(c2cc(NS(=O)(=O)c3cc(Br)ccc3O)c(O)c(C(N)=O)c2)CCC1` [Example J218, 3-((5-Bromo-2-hydroxyphenyl)sulfonamido)-5-(1-cyanocyclobutyl)-2-hydroxybenzamide], 1500 nM; under `O=[N+]([O-])c1cc(Cl)cc(NS(=O)(=O)c2cc(Br)ccc2O)c1O` [NE6, 5-Bromo-N-(5-chloro-2-hydroxy-3-nitrophenyl)-2-hydroxybenzenesulfonamide], 12400 nM.
In the case of `COCCNC(=O)c1cc(OC(F)(F)F)cc(NS(=O)(=O)c2cc(Br)ccc2O)c1O` [Example J163, 3-((5-Bromo-2-hydroxyphenyl)sulfonamido)-2-hydroxy-N-(2-methoxyethyl)-5-(trifluoromethoxy)benzamide], the affinity, expressed as Ki, was 570 nM. This Ki lies about 22-fold lower than the previous one.
`COC1CCN(C(=O)c2cc(Cl)cc(NS(=O)(=O)c3cc(Br)ccc3O)c2O)C1` (stereo not shown) [Example J24, 5-Bromo-N-(5-chloro-2-hydroxy-3-(3-methoxypyrrolidine-1-carbonyl)phenyl)-2-hydroxybenzenesulfonamide] yielded a Ki of 5440 nM.
Turning to `COC[C@@H]1CCCN1C(=O)c1cc(OC(F)(F)F)cc(NS(=O)(=O)c2cc(Cl)ccc2O)c1O` [Example J176, (S)-5-Chloro-2-hydroxy-N-(2-hydroxy-3-(2-(methoxymethyl)pyrrolidine-1-carbonyl)-5-(trifluoromethoxy)phenyl)benzenesulfonamide], the Ki was determined as 7010 nM.
In the case of `CNC(=O)c1cc(C2(C#N)CCC2)cc(NS(=O)(=O)c2cc(Br)cc3cccnc23)c1O` [Example J217, 3-((6-Bromoquinoline)-8-sulfonamido)-5-(1-cyanocyclobutyl)-2-hydroxy-N-methylbenzamide], the Ki is 420 nM.
Next, `Cc1ccsc1-c1cc(NS(=O)(=O)c2cc(Br)ccc2O)c(O)c(C(=O)O)c1` [Example J197, 3-((5-Bromo-2-hydroxyphenyl)sulfonamido)-2-hydroxy-5-(3-methylthiophen-2-yl)benzoic acid]: 1930 nM.
Under `O=C(NCCN1CCOCC1)c1cc(C2CC2)cc(NS(=O)(=O)c2cc(Br)ccc2O)c1F` [Example J143, 3-((5-Bromo-2-hydroxyphenyl)sulfonamido)-5-cyclopropyl-2-fluoro-N-(2-morpholinoethyl)benzamide] stands 2540 nM.
Turning to `COc1ccc(Br)cc1S(=O)(=O)Nc1cc(Cl)cc(C(=O)N2CCOCC2)c1O` [Example J48, 5-Bromo-N-(5-chloro-2-hydroxy-3-(morpholine-4-carbonyl)phenyl)-2-methoxybenzenesulfonamide], affinity was put at a Ki of 6190 nM.
As for `CS(=O)(=O)c1cc(NS(=O)(=O)c2cc(Br)cc(Cl)c2O)cc(C2CC2)c1` [Example S10, 5-Bromo-3-chloro-N-(3-cyclopropyl-5-(methylsulfonyl)phenyl)-2-hydroxybenzenesulfonamide], the Ki came to 170 nM.
Under `O=C(NC1COC1)c1cc(C2CC2)cc(NS(=O)(=O)c2cc(Br)ccc2O)c1F` [Example J144, 3-((5-Bromo-2-hydroxyphenyl)sulfonamido)-5-cyclopropyl-2-fluoro-N-(oxetan-3-yl)benzamide] stands 6760 nM.
Next, `O=C(NCCCO)c1cc(C2CC2)cc(NS(=O)(=O)c2cc(Br)ccc2O)c1O` [Example J91, 3-((5-Bromo-2-hydroxyphenyl)sulfonamido)-5-cyclopropyl-2-hydroxy-N-(3-hydroxypropyl)benzamide]: 940 nM.
`O=C(NCCO)c1cc(F)cc(NS(=O)(=O)c2cc(Br)ccc2O)c1O` [Example J111, 3-((5-Bromo-2-hydroxyphenyl)sulfonamido)-5-fluoro-2-hydroxy-N-(2-hydroxyethyl)benzamide] showed a Ki of 2930 nM.
The compound `CC(O)(CNC(=O)c1cc(OC(F)(F)F)cc(NS(=O)(=O)c2cc(Br)ccc2O)c1O)C1CC1` (stereo not shown) [HCH-44, 3-((5-Bromo-2-hydroxyphenyl)sulfonamido)-N-(2-cyclopropyl-2-hydroxypropyl)-2-hydroxy-5-(trifluoromethoxy)benzamide] came in with a Ki of 430 nM.
For the compound `O=C(O)c1cc(OC(F)(F)F)cc(NS(=O)(=O)c2cc(Br)cc3cccnc23)c1O` [Example J161, 3-((6-Bromoquinoline)-8-sulfonamido)-2-hydroxy-5-(trifluoromethoxy)benzoic acid], the Ki stood at 350 nM.
Under `O=C(NCCN1CCOCC1)c1cc(C2CC2)cc(NS(=O)(=O)c2cc(Br)cc(Cl)c2O)c1F` [Example J158, 3-((5-Bromo-3-chloro-2-hydroxyphenyl)sulfonamido)-5-cyclopropyl-2-fluoro-N-(2-morpholinoethyl)benzamide] stands 320 nM; under `COc1c(Cl)cc(Br)cc1S(=O)(=O)Nc1cc(C2(C#N)CCC2)cc(C(=O)O)c1O` [SN-4, 3-((5-bromo-3-chloro-2-methoxyphenyl)sulfonamido)-5-(1-cyanocyclobutyl)-2-hydroxybenzoic acid], 870 nM.
With `CNC(=O)c1cc(S(F)(F)(F)(F)F)cc(NS(=O)(=O)c2cc(Br)cc(Cl)c2O)c1O` [Example S63, 3-((5-Bromo-3-chloro-2-hydroxyphenyl)sulfonamido)-2-hydroxy-N-methyl-5-(pentafluoro-λ^6-sulfaneyl)benzamide], the Ki is 160 nM.
For `COc1ccc(Br)cc1S(=O)(=O)Nc1cc(Cl)cc(C(=O)NC2CCOCC2)c1O` [Example J52, 3-((5-Bromo-2-methoxyphenyl)sulfonamido)-5-chloro-2-hydroxy-N-(tetrahydro-2H-pyran-4-yl)benzamide], the Ki came to 3950 nM.
Next, `CNC(=O)c1cc(C2(C#N)CCC2)cc(NS(=O)(=O)c2cc(Br)cc3c2OCC3)c1O` [SN-9, 3-((5-bromo-2,3-dihydrobenzofuran)-7-sulfonamido)-5-(1-cyanocyclobutyl)-2-hydroxy-N-methylbenzamide]: 990 nM; `CS(=O)(=O)c1cc(NS(=O)(=O)c2cc(Br)cc(Cl)c2O)cc(S(F)(F)(F)(F)F)c1` [Example S14, 5-Bromo-3-chloro-2-hydroxy-N-(3-(methylsulfonyl)-5-(pentafluoro-λ^6-sulfaneyl)phenyl)benzenesulfonamide]: 30 nM.
Compound `CCC(O)CNC(=O)c1cc(OC(F)(F)F)cc(NS(=O)(=O)c2cc(Br)cc(Cl)c2O)c1O` (stereo not shown) [HCH-41, 3-((5-Bromo-3-chloro-2-hydroxyphenyl)sulfonamido)-2-hydroxy-N-(2-hydroxybutyl)-5-(trifluoromethoxy)benzamide] showed a Ki of 230 nM. This Ki is about 7.7-fold higher than that of the compound before.
As for `CCN(CC)CCS(=O)(=O)c1cc(Cl)cc(NS(=O)(=O)c2cc(Br)cc(Cl)c2O)c1` [Example S35, 5-Bromo-3-chloro-N-(3-chloro-5-((2-(diethylamino)ethyl)sulfonyl)phenyl)-2-hydroxybenzenesulfonamide], the Ki is 340 nM.
Under `COCCN(C)C(=O)c1cc(Cl)cc(NS(=O)(=O)c2cc(Br)ccc2OC)c1O` [Example J58, 3-((5-Bromo-2-methoxyphenyl)sulfonamido)-5-chloro-2-hydroxy-N-(2-methoxyethyl)-N-methylbenzamide] stands 7740 nM; under `Cc1sccc1-c1cc(NS(=O)(=O)c2cc(Br)ccc2O)c(O)c(C(=O)O)c1` [Example J198, 3-((5-Bromo-2-hydroxyphenyl)sulfonamido)-2-hydroxy-5-(2-methylthiophen-3-yl)benzoic acid], 1100 nM; under `O=C(NC1CC(F)(F)C1)c1cc(Cl)cc(NS(=O)(=O)c2cc(Br)ccc2O)c1O` [Example J38, 3-((5-Bromo-2-hydroxyphenyl)sulfonamido)-5-chloro-N-(3,3-difluorocyclobutyl)-2-hydroxybenzamide], 400 nM.
With `N#CC1(c2cc(NS(=O)(=O)c3cc(Br)cc(Cl)c3O)c(O)c(C(=O)O)c2)CCCCC1` [Example J234, 3-((5-Bromo-3-chloro-2-hydroxyphenyl)sulfonamido)-5-(1-cyanocyclohexyl)-2-hydroxybenzoic acid], affinity was put at a Ki of 20 nM.

Values taken from US12398097B2, “WDR5-MYC inhibitors” (Vanderbilt University, priority 2019, dated 2025).
